Data as given in the NIST ThermoML archive (doi:10.1007/s10765-005-5571-9).
Numbers after ± are expanded uncertainties.

Tests used:
[1] = 298.15 K; 101.3 kPa; Liquid
[2] = xn = mol fraction of the nth substance listed; conditions: 298 K, 101.3 kPa, Liquid

C=CC(=O)OCCCC [butyl 2-propenoate]
Conditions | mass density [kg/m3]
[1] | 893.947 ± 0.2

CC(=O)OCCC(C)C [3-methylbutyl ethanoate] + C=CC(=O)OCC
Conditions | mass density [kg/m3]
[2], x1 = 1 | 867.356 ± 0.36

C=CC(=O)OCC [ethyl propenoate] + CC(=O)OCCC(C)C
[2]
Conditions | mass density [kg/m3]
x2 = 0 | 916.124 ± 0.2
x2 = 0.031 | 913.999 ± 0.2
x2 = 0.0501 | 912.721 ± 0.2
x2 = 0.0999 | 909.503 ± 0.21
x2 = 0.1505 | 906.326 ± 0.22
x2 = 0.2012 | 903.286 ± 0.23
x2 = 0.2501 | 900.442 ± 0.23
x2 = 0.301 | 897.604 ± 0.24
x2 = 0.3512 | 894.897 ± 0.25
x2 = 0.402 | 892.257 ± 0.26
x2 = 0.4505 | 889.84 ± 0.27
x2 = 0.501 | 887.406 ± 0.28
x2 = 0.5502 | 885.117 ± 0.29
x2 = 0.6002 | 882.87 ± 0.29
x2 = 0.6518 | 880.634 ± 0.3
x2 = 0.7001 | 878.602 ± 0.31
x2 = 0.7499 | 876.582 ± 0.32
x2 = 0.8008 | 874.573 ± 0.33
x2 = 0.8514 | 872.644 ± 0.34
x2 = 0.9001 | 870.846 ± 0.34
x2 = 0.9503 | 869.055 ± 0.35
x2 = 0.9752 | 868.197 ± 0.36

C=Cc1ccccc1 [styrene] + CC(=O)OCCC(C)C
Conditions | mass density [kg/m3]
[2], x2 = 0 | 901.941 ± 0.19

CC(=O)OCCC(C)C [3-methylbutyl ethanoate]
Conditions | mass density [kg/m3]
[1] | 867.356 ± 0.36

C=CC(=O)OCC [ethyl propenoate]
Conditions | mass density [kg/m3]
[1] | 916.124 ± 0.2

C=C(C)C(=O)OC [methyl methacrylate] + CC(=O)OCCC(C)C
Conditions | mass density [kg/m3]
[2], x2 = 0 | 937.628 ± 0.16

CC(=O)OCCC(C)C [3-methylbutyl ethanoate] + C=C(C)C(=O)OC
[2]
Conditions | mass density [kg/m3]
x1 = 0.0263 | 934.984 ± 0.16
x1 = 0.0515 | 932.526 ± 0.17
x1 = 0.1007 | 927.871 ± 0.18
x1 = 0.1599 | 922.52 ± 0.19
x1 = 0.2002 | 919.025 ± 0.2
x1 = 0.25 | 914.86 ± 0.21
x1 = 0.3053 | 910.408 ± 0.22
x1 = 0.3502 | 906.93 ± 0.23
x1 = 0.4005 | 903.17 ± 0.24
x1 = 0.4504 | 899.578 ± 0.25
x1 = 0.5005 | 896.102 ± 0.26
x1 = 0.5502 | 892.767 ± 0.27
x1 = 0.6005 | 889.513 ± 0.28
x1 = 0.6538 | 886.188 ± 0.29
x1 = 0.7003 | 883.384 ± 0.3
x1 = 0.7508 | 880.451 ± 0.31
x1 = 0.8003 | 877.66 ± 0.32
x1 = 0.85 | 874.956 ± 0.33
x1 = 0.9002 | 872.311 ± 0.34
x1 = 0.9499 | 869.798 ± 0.35
x1 = 0.9751 | 868.558 ± 0.36
x1 = 1 | 867.356 ± 0.36

C=Cc1ccccc1 [styrene]
Conditions | mass density [kg/m3]
[1] | 901.941 ± 0.19

CC(=O)OCCC(C)C [3-methylbutyl ethanoate] + C=CC(=O)OCCCC
Conditions | mass density [kg/m3]
[2], x1 = 1 | 867.356 ± 0.36

C=CC(=O)OCCCC [butyl 2-propenoate] + CC(=O)OCCC(C)C
[2]
Conditions | mass density [kg/m3]
x2 = 0 | 893.947 ± 0.2
x2 = 0.0257 | 893.222 ± 0.2
x2 = 0.0496 | 892.552 ± 0.2
x2 = 0.1035 | 891.059 ± 0.21
x2 = 0.1504 | 889.769 ± 0.21
x2 = 0.2 | 888.407 ± 0.22
x2 = 0.2504 | 887.04 ± 0.23
x2 = 0.2999 | 885.689 ± 0.23
x2 = 0.3512 | 884.304 ± 0.24
x2 = 0.4001 | 882.985 ± 0.25
x2 = 0.4521 | 881.596 ± 0.26
x2 = 0.5 | 880.304 ± 0.27
x2 = 0.55 | 878.984 ± 0.28
x2 = 0.6 | 877.664 ± 0.28
x2 = 0.65 | 876.356 ± 0.29
x2 = 0.7003 | 875.048 ± 0.3
x2 = 0.7502 | 873.751 ± 0.31
x2 = 0.7998 | 872.467 ± 0.32
x2 = 0.85 | 871.176 ± 0.33
x2 = 0.9 | 869.889 ± 0.34
x2 = 0.95 | 868.618 ± 0.35
x2 = 0.9752 | 867.98 ± 0.36

C=C(C)C(=O)OC [methyl methacrylate]
Conditions | mass density [kg/m3]
[1] | 937.628 ± 0.16

CC(=O)OCCC(C)C [3-methylbutyl ethanoate] + C=Cc1ccccc1
[2]
Conditions | mass density [kg/m3]
x1 = 0.0293 | 900.833 ± 0.19
x1 = 0.0529 | 899.946 ± 0.2
x1 = 0.0997 | 898.18 ± 0.2
x1 = 0.1502 | 896.274 ± 0.21
x1 = 0.2 | 894.422 ± 0.21
x1 = 0.2502 | 892.59 ± 0.22
x1 = 0.3064 | 890.541 ± 0.23
x1 = 0.3509 | 888.929 ± 0.24
x1 = 0.4042 | 887.046 ± 0.25
x1 = 0.4508 | 885.398 ± 0.26
x1 = 0.5011 | 883.646 ± 0.27
x1 = 0.5571 | 881.719 ± 0.28
x1 = 0.6002 | 880.257 ± 0.28
x1 = 0.6507 | 878.546 ± 0.29
x1 = 0.7003 | 876.895 ± 0.3
x1 = 0.7514 | 875.198 ± 0.31
x1 = 0.7999 | 873.614 ± 0.32
x1 = 0.8507 | 871.983 ± 0.33
x1 = 0.9005 | 870.41 ± 0.34
x1 = 0.9499 | 868.881 ± 0.35
x1 = 0.9747 | 868.119 ± 0.36
x1 = 1 | 867.356 ± 0.36
